From PubChem BioAssay AID248 (DTP/NCI, 2004)
Where “and” joins values, the source holds several entries; their conditions need not be identical. Identical values can stand only once. Inconclusive results and toxic doses are left out. Rule as the data show it: active = T/C of 150% or more; inactive = T/C below 125%.

Test system: L1210 leukemia ip in BDF1 mice, survival T/C
Test: NCI In Vivo Anticancer Drug Screen. Data for tumor model L1210 Leukemia (intraperitoneal) in B6D2F1 (BDF1) mice
Details: endpoint: mean survival time, higher = longer survival
Summary of the method: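 Antitumor effect is assessed in tumor-bearing animals. Survival in the compound arm is compared with a vehicle-dosed control arm and expressed as their quotient.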

[1] = dose: 75.0 mg/kg/injection, schedule: Q01DX001 (ip), vehicle: other
[2] = dose: 150.0 mg/kg/injection, schedule: Q01DX001 (ip), vehicle: other
[3] = dose: 100.0 mg/kg/injection, schedule: Q04DX002 (ip), vehicle: saline with Tween-80
[4] = dose: 200.0 mg/kg/injection, schedule: Q04DX002 (ip), vehicle: saline with Tween-80
[5] = dose: 400.0 mg/kg/injection, schedule: Q04DX002 (ip), vehicle: saline with Tween-80
[6] = dose: 100.0 mg/kg/injection, schedule: Q01DX001 (ip), vehicle: carboxymethylcellulose (CMC)
[7] = dose: 200.0 mg/kg/injection, schedule: Q01DX001 (ip), vehicle: carboxymethylcellulose (CMC)
[8] = dose: 400.0 mg/kg/injection, schedule: Q01DX001 (ip), vehicle: carboxymethylcellulose (CMC)
[9] = dose: 100.0 mg/kg/injection, schedule: Q01DX005 (ip), vehicle: saline
[10] = dose: 200.0 mg/kg/injection, schedule: Q01DX005 (ip), vehicle: saline

Measured: T/C

Cc1ccc2nc3nc(-c4ccccc4)c(-c4ccccc4)nc3nc2c1
inactive: [1] 93 % of control | [2] 94 % of control | dose: 300.0 mg/kg/injection, schedule: Q01DX001 (ip), vehicle: other 89 % of control

CC12CCC3=C(CCc4cc(O)ccc43)C1CCC2=O (stereo not given)
inactive: dose: 75.0 mg/kg/injection, schedule: Q01DX001 (ip), vehicle: steriod suspending solution 91 % of control | dose: 150.0 mg/kg/injection, schedule: Q01DX001 (ip), vehicle: steriod suspending solution 96 % of control | dose: 300.0 mg/kg/injection, schedule: Q01DX001 (ip), vehicle: steriod suspending solution 101 % of control

OC(CCCNc1ccccc1)CCCNc1ccccc1
inactive: dose: 75.0 mg/kg/injection, schedule: Q01DX001 (ip), vehicle: saline 96 % of control | dose: 150.0 mg/kg/injection, schedule: Q01DX001 (ip), vehicle: saline 91 % of control

CCN(CC)CCCC(C)Nc1cccc2c1C(=O)c1ccccc1C2=O (stereo not given)
inactive: dose: 25.0 mg/kg/injection, schedule: Q01DX009 (ip), vehicle: saline 100 % of control | dose: 25.0 mg/kg/injection, schedule: Q04DX002 (ip), vehicle: saline 95 % of control | dose: 50.0 mg/kg/injection, schedule: Q01DX009 (ip), vehicle: saline 93 % of control | dose: 50.0 mg/kg/injection, schedule: Q04DX002 (ip), vehicle: saline 92 % of control | dose: 100.0 mg/kg/injection, schedule: Q01DX009 (ip), vehicle: saline 93 % of control | dose: 100.0 mg/kg/injection, schedule: Q04DX002 (ip), vehicle: saline 100 % of control and 92 % of control

CCN(CC)CCN(C#N)Cc1ccccc1
inactive: dose: 75.0 mg/kg/injection, schedule: Q01DX001 (ip), vehicle: carboxymethylcellulose (CMC) 102 % of control

CCC(CC)NC(CC)COC(=O)c1ccc(N)cc1 (stereo not given)
inactive: [1] 97 % of control | [2] 107 % of control

CN(C)[S+](C)(=O)/C=C(/[O-])c1ccccc1 (stereo not given)
inactive: dose: 62.5 mg/kg/injection, schedule: Q01DX001 (ip), vehicle: saline 106 % of control | dose: 125.0 mg/kg/injection, schedule: Q01DX001 (ip), vehicle: saline 102 % of control | dose: 250.0 mg/kg/injection, schedule: Q01DX001 (ip), vehicle: saline 102 % of control

Nc1cccc2ncc(C=O)n12
inactive: dose: 37.5 mg/kg/injection, schedule: Q01DX001 (ip), vehicle: Klucel (hydroxypropylcellulose) (HPC) 102 % of control | dose: 75.0 mg/kg/injection, schedule: Q01DX001 (ip), vehicle: Klucel (hydroxypropylcellulose) (HPC) 96 % of control | dose: 150.0 mg/kg/injection, schedule: Q01DX001 (ip), vehicle: Klucel (hydroxypropylcellulose) (HPC) 95 % of control

CC(C)(O)S(=O)(=O)O
inactive: [3] 95 % of control | [4] 101 % of control | [5] 98 % of control

c1cc(OC2CCCCO2)ccc1OC1CCCCO1 (stereo not given)
inactive: dose: 100.0 mg/kg/injection, schedule: Q01DX009 (ip), vehicle: saline with Tween-80 98 % of control | dose: 100.0 mg/kg/injection, schedule: Q04DX003 (ip), vehicle: saline with Tween-80 95 % of control | dose: 200.0 mg/kg/injection, schedule: Q01DX009 (ip), vehicle: saline with Tween-80 97 % of control | dose: 200.0 mg/kg/injection, schedule: Q04DX003 (ip), vehicle: saline with Tween-80 93 % of control | dose: 400.0 mg/kg/injection, schedule: Q01DX009 (ip), vehicle: saline with Tween-80 97 % of control | dose: 400.0 mg/kg/injection, schedule: Q04DX003 (ip), vehicle: saline with Tween-80 95 % of control

Cc1sc(Cc2ccccc2)nc1-c1ccc(N=Cc2ccc(N(CCCl)CCCl)cc2)cc1
inactive: [6] 104 % of control | [7] 98 % of control | [8] 95 % of control

CCOC(=O)/C=C(\C#N)CC(=O)OCC
inactive: dose: 50.0 mg/kg/injection, schedule: Q01DX005 (ip), vehicle: saline 102 % of control | [9] 102 % of control | [10] 96 % of control | dose: 400.0 mg/kg/injection, schedule: Q01DX005 (ip), vehicle: saline 94 % of control

NNc1ncccc1[N+](=O)[O-]
inactive: dose: 50.0 mg/kg/injection, schedule: Q01DX001 (ip), vehicle: saline 102 % of control | dose: 100.0 mg/kg/injection, schedule: Q01DX001 (ip), vehicle: saline 108 % of control | dose: 200.0 mg/kg/injection, schedule: Q01DX001 (ip), vehicle: saline 96 % of control

CC1C(c2ccccc2)OCCN1CN1C(=O)c2ccccc2C1=O (stereo not given)
inactive: dose: 100.0 mg/kg/injection, schedule: Q04DX002 (ip), vehicle: Klucel (hydroxypropylcellulose) (HPC) 100 % of control | dose: 200.0 mg/kg/injection, schedule: Q04DX002 (ip), vehicle: Klucel (hydroxypropylcellulose) (HPC) 104 % of control | dose: 400.0 mg/kg/injection, schedule: Q04DX002 (ip), vehicle: Klucel (hydroxypropylcellulose) (HPC) 104 % of control

NC(=O)c1cc(Cl)cc(Cl)c1N
inactive: dose: 100.0 mg/kg/injection, schedule: Q01DX001 (ip), vehicle: Klucel (hydroxypropylcellulose) (HPC) 100 % of control | dose: 200.0 mg/kg/injection, schedule: Q01DX001 (ip), vehicle: Klucel (hydroxypropylcellulose) (HPC) 107 % of control | dose: 400.0 mg/kg/injection, schedule: Q01DX001 (ip), vehicle: Klucel (hydroxypropylcellulose) (HPC) 111 % of control

CN=C(N)N(C)/N=C(C)\C=N\N(C)C(N)=NC
inactive: dose: 15.0 mg/kg/injection, schedule: Q01DX Z (ip), vehicle: carboxymethylcellulose (CMC) 98 % of control | dose: 30.0 mg/kg/injection, schedule: Q01DX Z (ip), vehicle: carboxymethylcellulose (CMC) 96 % of control | dose: 60.0 mg/kg/injection, schedule: Q01DX Z (ip), vehicle: carboxymethylcellulose (CMC) 101 % of control | dose: 120.0 mg/kg/injection, schedule: Q01DX Z (ip), vehicle: carboxymethylcellulose (CMC) 113 % of control | dose: 240.0 mg/kg/injection, schedule: Q01DX Z (oral), vehicle: carboxymethylcellulose (CMC) 104 % of control | dose: 480.0 mg/kg/injection, schedule: Q01DX Z (oral), vehicle: carboxymethylcellulose (CMC) 104 % of control

COC(=O)NNc1ccccc1C(=O)OC
inactive: [3] 88 % of control | [4] 88 % of control | [5] 98 % of control

Cc1cccc2cc3ccc4ccccc4c3cc12
inactive: dose: 100.0 mg/kg/injection, schedule: Q01DX009 (ip), vehicle: Klucel (hydroxypropylcellulose) (HPC) 102 % of control | dose: 100.0 mg/kg/injection, schedule: Q04DX003 (ip), vehicle: other 101 % of control | dose: 200.0 mg/kg/injection, schedule: Q01DX009 (ip), vehicle: Klucel (hydroxypropylcellulose) (HPC) 95 % of control | dose: 200.0 mg/kg/injection, schedule: Q04DX003 (ip), vehicle: other 101 % of control | dose: 400.0 mg/kg/injection, schedule: Q01DX009 (ip), vehicle: Klucel (hydroxypropylcellulose) (HPC) 101 % of control | dose: 400.0 mg/kg/injection, schedule: Q04DX003 (ip), vehicle: other 95 % of control

O=C(O)CCCc1ccccc1
inactive: dose: 50.0 mg/kg/injection, schedule: Q01DX001 (ip), vehicle: carboxymethylcellulose (CMC) 94 % of control | [6] 108 % of control | [3] 98 % of control | [7] 96 % of control | [4] 91 % of control | [8] 107 % of control | [5] 109 % of control

CN(/N=N/c1nc[nH]c1C(=O)N/N=C/c1ccc(N(CCCl)CCCl)cc1)C1CCCCC1
inactive: dose: 100.0 mg/kg/injection, schedule: Q01DX001 (ip), vehicle: other 95 % of control | dose: 200.0 mg/kg/injection, schedule: Q01DX001 (ip), vehicle: other 95 % of control | dose: 400.0 mg/kg/injection, schedule: Q01DX001 (ip), vehicle: other 90 % of control

COc1ccc(COC2C(O)C(CO)OC2n2cnc3c(N)ncnc32)cc1 (stereo not given)
inactive: [9] 92 % of control | [10] 94 % of control
